Test results reported in patent US20210179577A1, “AROMATIC SULFONAMIDE DERIVATIVES FOR THE TREATMENT OF ISCHEMIC STROKE” (Bayer Aktiengesellschaft, priority 2017, published 2021).

How the values were obtained:
rat P2X4 = biological target: T1, rat P2X4 (Rattus norvegicus, UniProt P51577); test: FLIPR assay, rat P2X4 1321N1 Astrocytoma Cells; format: cell-based; conditions: agonist Mg-ATP at EC80
T1 construct: expressed in transfected cells; host or cells: 1321N1 astrocytoma cells
T1 sequence (P51577 1-388): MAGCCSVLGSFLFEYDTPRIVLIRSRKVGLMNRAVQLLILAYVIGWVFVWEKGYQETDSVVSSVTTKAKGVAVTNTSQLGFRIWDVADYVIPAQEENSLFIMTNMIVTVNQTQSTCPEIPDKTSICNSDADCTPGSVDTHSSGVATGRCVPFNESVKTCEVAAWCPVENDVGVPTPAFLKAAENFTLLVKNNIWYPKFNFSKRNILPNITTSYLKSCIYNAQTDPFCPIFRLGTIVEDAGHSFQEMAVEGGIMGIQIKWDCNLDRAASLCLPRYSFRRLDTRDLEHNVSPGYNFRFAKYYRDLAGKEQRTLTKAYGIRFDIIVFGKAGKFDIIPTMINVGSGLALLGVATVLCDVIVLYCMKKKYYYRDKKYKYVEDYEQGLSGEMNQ
Experimental: 1321N1 Astrocytoma cells stably expressing human P2X4 or rat P2X4 or mouse P2X4 were plated in Collagen ITO-treated microplate at a seeding density of 10000 cells/well and incubated overnight. P2X4 function was assessed by measuring intracellular calcium changes using the calcium-chelating dye Fluo8-AM (Molecular Devices) on a fluorescent imaging plate reader (FLEX/FLIPR station; Molecular Devices). On the day of the assay, the medium was removed and the cells were incubated for 30 min at […] and 5% CO2 in 30 μL of dye buffer (Hank's balanced salt solution, 10 mM HEPES, 1.8 mM CaCl2, 1 mM MgCl2, 2 mM probenecid, 5 mM D-glucose monohydrate, 5 μM Fluo8-AM, pH=7.4). Compounds diluted in probenecid buffer (Hank's balanced salt solution, 10 mM HEPES, 1.8 mM CaCl2, 1 mM MgCl2, 2 mM probenecid, 5 mM D-glucose monohydrate, pH=7.4) were added in a volume of 10 μL and allowed to incubate for 30 min at room temperature. The final assay DMSO concentration was 0.25%. The agonist, Mg-ATP (Sigma), was added in a volume of 10 μL at a concentration representing the EC80 value. EC80 was determined to be 0.5 μM for human and mouse P2X4 and 5 μM for rat P2X4. The fluorescence was measured for an interval of 120 sec at 2 sec intervals. The excitation and emission wavelengths used to monitor fluorescence were 470-495 nm and 515-575 nm, respectively. The data was analyzed based on the increase in peak relative fluorescence units (RFU) compared to the basal fluorescence and the data was normalized to the agonist control. The compounds were tested in triplicates per plate and mean values were plotted in Excel XLFit to determine IC50 values, percentage of maximal inhibition and the Hill coefficients.

human P2X4 = biological target: T2, human P2X4 (Homo sapiens, UniProt Q99571); test: Human P2X4 HEK Cell FLIPR Assay; format: cell-based; parameters: expressed in transfected cells; host or cells: HEK293; conditions: HEK293 cells, agonist Bz-ATP at EC80
T2 sequence (Q99571 1-388): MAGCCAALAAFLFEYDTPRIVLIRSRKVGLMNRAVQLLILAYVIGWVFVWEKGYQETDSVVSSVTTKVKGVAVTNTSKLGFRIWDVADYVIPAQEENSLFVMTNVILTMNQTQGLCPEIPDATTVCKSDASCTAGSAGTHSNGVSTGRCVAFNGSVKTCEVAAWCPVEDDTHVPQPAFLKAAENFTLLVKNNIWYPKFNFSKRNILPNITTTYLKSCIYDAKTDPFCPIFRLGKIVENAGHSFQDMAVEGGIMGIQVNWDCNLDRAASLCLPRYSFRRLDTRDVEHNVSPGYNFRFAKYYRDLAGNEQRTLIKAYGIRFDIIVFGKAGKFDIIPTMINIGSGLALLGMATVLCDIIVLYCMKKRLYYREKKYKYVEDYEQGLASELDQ
Experimental: HEK293 cells stably expressing human P2X4 were plated in poly-D-lysine-coated 384-well plates at a seeding density of 30000 cells/well and incubated overnight. P2X4 function was assessed by measuring intracellular calcium changes using the calcium-chelating dye Fluo8-AM (Molecular Devices) on a fluorescent imaging plate reader (FLEX/FLIPR station; Molecular Devices). On the day of the assay, the medium was removed and the cells were incubated for 30 min at 37° C. and 5% CO2 in 30 μL of dye buffer (Hank's balanced salt solution, 10 mM HEPES, 1.8 mM CaCl2, 1 mM MgCl2, 2 mM probenecid, 5 mM D-glucose monohydrate, 5 μM Fluo8-AM, pH=7.4). Compounds diluted in probenecid buffer (Hank's balanced salt solution, 10 mM HEPES, 1.8 mM CaCl2, 1 mM MgCl2, 2 mM probenecid, 5 mM D-glucose monohydrate, pH=7.4) were added in a volume of 10 μL and allowed to incubate for 30 min at room temperature. The final assay DMSO concentration was 0.5%. The agonist, Bz-ATP (Tocris), was added in a volume of 10 μL at a concentration representing the EC80 value. The EC80 value of Bz-ATP was determined each assay day prior to compound profiling. The fluorescence was measured for an interval of 120 sec at 2 sec intervals. The excitation and emission wavelengths used to monitor fluorescence were 470-495 nm and 515-575 nm, respectively. The data was analyzed based on the increase in peak relative fluorescence units (RFU) compared to the basal fluorescence and the data was normalized to the agonist control. The compounds were tested in triplicates per plate and mean values were plotted in Excel XL-Fit to determine IC50 values, percentage of maximal inhibition and the Hill coefficients.

Compound | IC50 (rat P2X4) | Rat P2X4 1321N1 Astrocytoma Cells (FLIPR Assay) avg Efficacy (rat P2X4) | IC50 (human P2X4)
NS(=O)(=O)c1cc(NC(=O)Cc2ccccc2Cl)ccc1-n1cc(C(F)(F)F)cn1 [Example 19, 2-(2-Chlorophenyl)-N-{3-sulfamoyl-4-[4-(trifluoromethyl)-1H-pyrazol-1-yl]phenyl}acetamide] | 71 nM | 57% | 47 nM
NS(=O)(=O)c1cc(NC(=O)Cc2ccccc2Cl)ccc1-n1cc(F)cn1 [Example 26, 2-(2-Chlorophenyl)-N-[4-(4-fluoro-1H-pyrazol-1-yl)-3-sulfamoylphenyl]acetamide] |  |  | 27 nM
N#Cc1cnn(-c2ccc(NC(=O)Cc3ccccc3Cl)cc2S(N)(=O)=O)c1 [Example 39, 2-(2-Chlorophenyl)-N-[4-(4-cyano-1H-pyrazol-1-yl)-3-sulfamoylphenyl]acetamide] | 308 nM | 87% | 32 nM
NS(=O)(=O)c1cc(NC(=O)Cc2ccccc2Cl)ccc1-c1cnn(C(F)F)c1 [Example 326, 2-(2-Chlorophenyl)-N-{4-[1-(difluoromethyl)-1H-pyrazol-4-yl]-3-sulfamoylphenyl}acetamide] | 325 nM | 99% | 17 nM
NS(=O)(=O)c1cc(NC(=O)Cc2ccccc2Cl)cnc1-n1cc(C(F)(F)F)cn1 [Example 380, 2-(2-Chlorophenyl)-N-{5-sulfamoyl-6-[4-(trifluoromethyl)-1H-pyrazol-1-yl]pyridin-3-yl}acetamide] |  |  | 299 nM
